# Tests used:
# Format in all cases: functional
# [Chlorella] fusca [1] = Antimicrobial activity against Chlorella fusca at 1 mg/ml; conditions: Scenedesmus fuscus; read-out: IZ
# [Chlorella] fusca [2] = Antimicrobial activity against Chlorella fusca at 5 mg/ml; conditions: Scenedesmus fuscus; read-out: IZ
# Priestia megaterium [3] = assay: Antimicrobial activity against Bacillus megaterium 1mg/ml
# Priestia megaterium [4] = assay: Antimicrobial activity against Bacillus megaterium 5 mg/ml
# Microbotryum violaceum [5] = assay: Antimicrobial activity against Microbotryum violaceum 1 mg/ml
# Microbotryum violaceum [6] = assay: Antimicrobial activity against Microbotryum violaceum 5 mg/ml
# [Chlorella] fusca [7] = Antimicrobial activity against Chlorella fusca at 2 mg/ml; conditions: Scenedesmus fuscus; read-out: IZ
# [Chlorella] fusca [8] = Antimicrobial activity against Chlorella fusca at 8 mg/ml; conditions: Scenedesmus fuscus; read-out: IZ
Compound,zone of inhibition at 1000 µg/mL ([Chlorella] fusca [1]),zone of inhibition at 5000 µg/mL ([Chlorella] fusca [2]),inhibition zone (IZ) (Priestia megaterium [3]),inhibition zone (IZ) (Priestia megaterium [4]),inhibition zone (IZ) (Microbotryum violaceum [5]),inhibition zone (IZ) (Microbotryum violaceum [6]),zone of inhibition at 2000 µg/mL ([Chlorella] fusca [7]),zone of inhibition at 8000 µg/mL ([Chlorella] fusca [8])
C[C@@H]1C[C@H](O)C2=C3C1=COC[C@@]3(C)[C@H](O)C2(C)C,0 mm,7 mm,0 mm,0 mm,0 mm,5 mm,,
CCO[C@H]1OC[C@]2(C)c3c(ccc(C)c31)C(C)(C)[C@H]2O,,,,,,,5 mm,6 mm
Cc1ccc2c3c1[C@@H](O)OC[C@@]3(C)[C@H](O)C2(C)C,0 mm,12 mm,0 mm,6 mm,0 mm,6 mm,,
CO[C@H]1OC[C@@]2(C)[C@H](OC(C)=O)C(C)(C)[C@@H]3[C@@H](OC(C)=O)C[C@@H](C)[C@H]1[C@@]32O,0 mm,0 mm,0 mm,0 mm,0 mm,0 mm,,
C[C@@H]1C[C@H](O)[C@@H]2C3=C1[C@@H](O)OC[C@@]3(C)[C@H](O)C2(C)C,,,,,,,0 mm,7 mm
C[C@@H]1C[C@H](O)[C@H]2C(C)(C)C[C@]3(C)CO[C@H](O)[C@@H]1[C@@]23O,0 mm,0 mm,0 mm,0 mm,0 mm,0 mm,,
C[C@@H]1C[C@H](O)[C@@H]2C(=C1C=O)[C@@](C)(CO)[C@H](O)C2(C)C,,,,,,,0 mm,6 mm
CO[C@H]1OC[C@@]2(C)[C@H](O)C(C)(C)[C@@H]3[C@@H](O)C[C@@H](C)[C@H]1[C@@]32O,0 mm,0 mm,0 mm,0 mm,0 mm,0 mm,,
C[C@@H]1CC=C2[C@@H]3[C@H]1CC(O)[C@@]3(C=O)CC2(C)C (some centres not stated),0 mm,10 mm,0 mm,0 mm,0 mm,0 mm,,
Cc1ccc2c3c1C(=O)OC[C@@]3(C)[C@H](O)C2(C)C,0 mm,8 mm,0 mm,6 mm,0 mm,0 mm,,
CO[C@H]1OC[C@]2(C)c3c(ccc(C)c31)C(C)(C)[C@H]2O,0 mm,6 mm,0 mm,6 mm,0 mm,8 mm,,
Cc1ccc2c3c1COC[C@@]3(C)[C@H](O)C2(C)C,,,,,,,5 mm,5 mm
C[C@@H]1CCC2=C3C1=COC[C@@]3(C)[C@H](O)C2(C)C,0 mm,6 mm,0 mm,0 mm,0 mm,5 mm,,
